“Also recorded” adds a separate entry of the source.
What was measured:
[1] = solubility in excipients and excipient combinations; format: physicochemical
Method: Determination of the solubility of a spiro-oxindole compound of the invention, as a racemate, a single enantiomer, or a non-racemic mixture of enantiomers, or a pharmaceutically acceptable salt thereof, in each of the above excipients was carried out by weighing a specified quantity of the excipient into a scintillation vial and then adding a weighed quantity of the spiro-oxindole compound of the invention, as a racemate, a single enantiomer, or a non-racemic mixture of enantiomers, or a pharmaceutically acceptable salt thereof. Heating and vortexing was then applied as required to dissolve the spiro-oxindole compound of the invention, as a racemate, a single enantiomer, or a non-racemic mixture of enantiomers, or a pharmaceutically acceptable salt thereof. If the initial quantity of the spiro-oxindole compound of the invention, as a racemate, a single enantiomer, or a non-racemic mixture of enantiomers, or a pharmaceutically acceptable salt thereof, dissolved, then an additional amount of the spiro-oxindole compound of the invention, as a racemate, a single enantiomer, or a non-racemic mixture of enantiomers, or a pharmaceutically acceptable salt thereof, was added to determine the maximum solubility.
The rationale for preparing each combination is given as well: […]

sodium channel = test: guanidine influx assay (WO 06/110917, BIOLOGICAL EXAMPLE 1); format: cell-based; conditions: inhibition of ion flux through a sodium channel
Method: Typically, a successful therapeutic effective amount of an pharmaceutical composition of the invention for oral administration to a mammal, in need thereof, will meet some or all of the following criteria. Animal model efficacy of a spiro-oxindole compound of the invention, as a racemate, a single enantiomer, or a non-racemic mixture of enantiomers, or a pharmaceutically acceptable salt thereof, should be less than about 0.1 μg/Kg to about 100 mg/Kg body weight and the target human dose of a spiro-oxindole compound of the invention, as a racemate, a single enantiomer, or a non-racemic mixture of enantiomers, or a pharmaceutically acceptable salt thereof, should be between 0.1 μg/Kg to about 100 mg/Kg body weight, although doses outside of this range may be acceptable (“mg/Kg” means milligrams of compound per kilogram of body mass of the subject to whom it is being administered). The therapeutic index (or ratio of toxic dose to therapeutic dose) of a spiro-oxindole compound of the invention, as a racemate, a single enantiomer, or a non-racemic mixture of enantiomers, or a pharmaceutically acceptable salt thereof, should be greater than 100. […]

[2] = system: pain following extraction of impacted third molar teeth; test: clinical trial for treatment of dental pain; format: in vivo, human; conditions: single 500 mg oral dose of composition comprising COMPOUND B
Method: The purpose of this clinical trial was to compare the safety and efficacy (onset, duration of relief, and overall efficacy) of a single 500 mg dose of a pharmaceutical composition of the invention comprising COMPOUND B versus a placebo dose for relief of pain following extraction of impacted third molar teeth. Sixty-one subjects were enrolled in the study. The mean age for the subjects was 20.4 years, and all subjects were male. The majority of subjects were Caucasians (95.1%). The severity and relief of the pain was measured using an 11-point Pain Intensity Numerical Rating Scale (graded from 0=no pain at all to 10=worst pain imaginable) (PINRS) and a 5-point Categorical Pain Relief Scale (REL). Subjects completed the PINRS after surgery, but before the administration of (S)-enantiomer of the invention. Efficacy variables were derived from the REL and PINRS scores and included total pain relief (TOTPAR), pain intensity difference (PID), and summed pain intensity difference (SPID) and evaluated at time points of 4, 6, 8, and 12 hours after administration of the pharmaceutical composition of the invention comprising COMPOUND B.

[3] = biological target: Nav1.7 voltage-gated sodium channel (Homo sapiens, UniProt Q15858); test: inhibition of Nav1.7
Chain of Nav1.7 voltage-gated sodium channel (Q15858 whole entry): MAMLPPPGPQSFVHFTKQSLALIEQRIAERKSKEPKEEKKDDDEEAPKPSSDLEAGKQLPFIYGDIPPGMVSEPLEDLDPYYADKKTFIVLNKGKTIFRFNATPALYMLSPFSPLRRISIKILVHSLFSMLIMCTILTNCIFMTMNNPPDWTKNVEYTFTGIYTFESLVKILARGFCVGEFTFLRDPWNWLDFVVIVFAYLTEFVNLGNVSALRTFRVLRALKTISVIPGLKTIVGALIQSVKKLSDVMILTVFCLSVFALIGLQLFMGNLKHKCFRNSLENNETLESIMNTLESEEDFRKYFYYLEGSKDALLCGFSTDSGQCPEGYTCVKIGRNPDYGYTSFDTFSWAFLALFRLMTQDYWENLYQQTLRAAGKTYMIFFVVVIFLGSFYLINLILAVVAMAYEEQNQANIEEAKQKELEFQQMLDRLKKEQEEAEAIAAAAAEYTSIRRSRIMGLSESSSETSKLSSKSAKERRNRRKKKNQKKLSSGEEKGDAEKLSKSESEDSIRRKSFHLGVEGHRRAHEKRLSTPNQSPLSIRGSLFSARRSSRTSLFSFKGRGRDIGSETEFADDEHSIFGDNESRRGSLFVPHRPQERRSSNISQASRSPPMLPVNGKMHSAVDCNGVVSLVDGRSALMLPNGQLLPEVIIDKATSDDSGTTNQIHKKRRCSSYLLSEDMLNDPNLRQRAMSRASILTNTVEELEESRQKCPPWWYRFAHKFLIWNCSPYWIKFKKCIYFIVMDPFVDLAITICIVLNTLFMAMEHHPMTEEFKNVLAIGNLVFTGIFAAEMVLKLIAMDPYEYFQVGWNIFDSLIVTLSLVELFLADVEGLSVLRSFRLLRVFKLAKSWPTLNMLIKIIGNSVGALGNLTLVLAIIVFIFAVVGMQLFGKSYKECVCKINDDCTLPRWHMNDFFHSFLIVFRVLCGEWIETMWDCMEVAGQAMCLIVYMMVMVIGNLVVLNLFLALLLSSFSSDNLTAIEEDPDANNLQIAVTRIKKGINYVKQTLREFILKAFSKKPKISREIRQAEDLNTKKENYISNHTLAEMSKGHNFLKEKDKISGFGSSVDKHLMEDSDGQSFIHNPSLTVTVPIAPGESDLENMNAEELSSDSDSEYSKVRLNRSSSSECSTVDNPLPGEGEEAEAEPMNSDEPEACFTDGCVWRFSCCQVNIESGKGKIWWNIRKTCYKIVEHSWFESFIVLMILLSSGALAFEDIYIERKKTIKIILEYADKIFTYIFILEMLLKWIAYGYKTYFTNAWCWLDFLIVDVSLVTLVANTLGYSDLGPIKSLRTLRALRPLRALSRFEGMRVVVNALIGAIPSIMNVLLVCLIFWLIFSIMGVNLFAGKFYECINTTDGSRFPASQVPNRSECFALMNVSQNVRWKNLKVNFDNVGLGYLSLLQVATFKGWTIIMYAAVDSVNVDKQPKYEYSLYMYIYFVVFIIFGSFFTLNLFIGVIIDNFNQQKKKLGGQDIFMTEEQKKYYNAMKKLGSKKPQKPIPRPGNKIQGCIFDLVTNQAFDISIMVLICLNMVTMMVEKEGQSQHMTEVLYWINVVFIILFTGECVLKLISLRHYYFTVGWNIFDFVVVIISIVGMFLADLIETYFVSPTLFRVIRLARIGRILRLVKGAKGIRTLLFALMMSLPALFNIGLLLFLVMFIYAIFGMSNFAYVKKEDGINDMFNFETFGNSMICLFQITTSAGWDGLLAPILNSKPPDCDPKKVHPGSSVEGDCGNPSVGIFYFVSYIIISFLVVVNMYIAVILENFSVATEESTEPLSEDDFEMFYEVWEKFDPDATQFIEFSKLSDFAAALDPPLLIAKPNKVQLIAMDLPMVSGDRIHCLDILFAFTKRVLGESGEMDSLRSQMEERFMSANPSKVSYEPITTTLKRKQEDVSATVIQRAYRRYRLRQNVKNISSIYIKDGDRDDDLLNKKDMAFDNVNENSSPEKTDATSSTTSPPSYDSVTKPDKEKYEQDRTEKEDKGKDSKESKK

[4] = in vivo pharmacokinetic profile after oral administration to dogs; design: species or system male beagle dogs; conditions: fasted dogs
Method: The in vivo pharmacokinetic profiles of the pharmaceutical compositions of the invention were determined as follows. Pharmaceutical compositions of the invention were orally administered to dogs in a controlled experiment to determine pharmacokinetic profile of a spiro-oxindole compound of the invention in a pharmaceutical composition of the invention.
Non-naïve male beagle dogs (Marshall Farms USA, Inc.) ranging in body weights from 6-10 Kg were used for the study. Each dog was fasted overnight before dosing. The fasted dogs (n=3/group) were given a single dose of 100 mg capsule (as setout in Table 4 above) or 400 mg (4×100 mg capsule) by oral administration (PO). Food was returned 4-hours post-dose. Blood samples were collected via jugular venipuncture at various timepoints ([…], 1, 2, 4, 6, 8, 24 and 48 hrs) after administration and plasma concentration was determined by liquid chromatography mass spectroscopy (LC-MS/MS). Concentrations of the active ingredient in the plasma samples at each timepoint were determined using standard methods known to one skilled in the art. The active ingredient concentrations were plotted against time (time in hours versus concentration in ng/mL) and the area under the curve extrapolated to infinity (AUCinf), the Cmax (peak plasma concentration of the active ingredient) and Tmax (time after administration of the pharmaceutical composition when peak plasma concentration level occurs) were calculated.

Row | Structure (SMILES) | solubility in Labrafac ([1]; excipient Labrafac) | solubility in Labrasol ([1]; excipient Labrasol) | solubility in PEG 400 ([1]; excipient PEG 400) | solution in the excipient combinations of Table 2 ([1]; upon mixing and heating to 70-80° C.) | IC50 (sodium channel) | onset of action [2] | pain relief compared to placebo [2] | statistical significance from the placebo [2] | primary and all secondary endpoints (TOTPAR, PID, SPID) versus placebo ([2]; 4, 6, 8 and 12 hours) | inhibition of Nav1.7 [3] | solubility in caprylic/capric glycerides such as Imwitor 742 ([1]; excipient Imwitor 742, compared with other excipients) | absorption following PO administration ([4]; single PO dose 100 mg or 400 mg) | Tmax ([4]; male, beagle, dog, plasma, single PO dose 100 mg capsule (Table 4) or 400 mg (4×100 mg capsule)) | Cmax ([4]; male, beagle, dog, single PO dose 100 mg capsule (Table 4) or 400 mg (4×100 mg capsule), plasma)
1 | O=C1N(Cc2ccc(C(F)(F)F)o2)c2ccccc2C12COc1cc3c(cc12)OCO3 (racemic) [COMPOUND A, 1′-{[5-(trifluoromethyl)-2-furyl]methyl}spiro[furo[2,3-f][1,3]benzodioxole-7,3′-indol]-2′(1′H)-one] | readily soluble in Labrafac ®. The | best excipient; also recorded: soluble in Labrasol ®, the excipient | readily soluble in PEG 400. PEG | suitable for producing a solution | < 1000 nM |  |  |  |  |  |  |  |  | 
2 | O=C1N(Cc2ccc(C(F)(F)F)o2)c2ccccc2[C@]12COc1cc3c(cc12)OCO3 [COMPOUND B, (S)-1′-{[5-(trifluoromethyl)-2-furyl]methyl}spiro[furo[2,3-f][1,3]benzodioxole-7,3′-indol]-2′(1′-H)-one] |  |  |  |  |  | slow onset of action | higher | not achieved | consistent analgesic trend | has been shown to inhibit | less than other excipients | readily absorbed | 1 to 3 h | 1300 to 1600 ng/mL

— patent publication US20110086899A1, “PHARMACEUTICAL COMPOSITIONS FOR ORAL ADMINISTRATION” (XENON PHARMACEUTICALS INC., priority 2009, published 2011)
